# Values of other authors, collected in patent US4461765A (Shionogi & Co., Ltd., priority 1979, dated 1984).
# Details: co-trimoxazol SMX:TMP 5:1; oral or intravenous administration
smiles,measurement,value
"COc1cc(Cc2cnc(N)nc2N)cc(OC)c1OC [TMP, trimethoprim]",minimum inhibition concentration in the blood level,0.6 µg/mL
